# According to ChEMBL document CHEMBL1157866, “Evaluation of anti-pigmentary effect of synthetic sulfonylamino chalcone” (Eur J Med Chem, 2010):
# Calls of active or inactive are those of the source. No cut-off for these calls is given here.
# Key:
# [1] = target: T1, Tyrosinase (Agaricus bisporus) (UniProt O42713); experiment: (§1) Inhibition of monophenolase activity of mushroom tyrosinase using as L-tyrosine substrate by spectrophotometric analysis
# T1 sequence (whole entry): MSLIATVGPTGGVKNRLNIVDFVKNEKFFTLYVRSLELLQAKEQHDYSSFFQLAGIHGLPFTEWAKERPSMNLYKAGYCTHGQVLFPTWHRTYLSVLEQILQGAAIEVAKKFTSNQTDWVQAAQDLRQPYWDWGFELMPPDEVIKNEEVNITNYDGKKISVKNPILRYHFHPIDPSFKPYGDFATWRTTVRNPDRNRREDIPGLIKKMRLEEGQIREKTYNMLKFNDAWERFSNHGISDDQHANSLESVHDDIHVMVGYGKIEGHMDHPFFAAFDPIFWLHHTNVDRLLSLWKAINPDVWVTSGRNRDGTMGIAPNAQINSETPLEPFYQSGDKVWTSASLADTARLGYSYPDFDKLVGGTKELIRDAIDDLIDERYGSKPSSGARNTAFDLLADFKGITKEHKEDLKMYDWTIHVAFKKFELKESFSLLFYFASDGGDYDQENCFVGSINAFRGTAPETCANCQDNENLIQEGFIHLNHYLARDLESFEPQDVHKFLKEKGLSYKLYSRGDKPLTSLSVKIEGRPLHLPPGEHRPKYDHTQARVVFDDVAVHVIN
# Tyrosinase [2] = target: T2, Tyrosinase (Agaricus bisporus, UniProt O42713); experiment: as §1
# T2 sequence (O42713 whole entry): T1 sequence (whole entry)
# Tyrosinase [3] = target: T2, Tyrosinase; experiment: Competitive inhibition of monophenolase activity of mushroom tyrosinase using as L-tyrosine substrate by Lineweaver-Burke plot analysis
# B16 [4] = experiment: cells; settings: Mus musculus, B16, 48 h
# B16 [5] = experiment: Inhibition of alpha-MSH-induced melanin production in mouse B16 cells assessed as reduction pigmentation at 20 uM after 48 hrs; assay type: functional, cell-based
# [6] = Cytotoxicity against mouse B16 cells at 10 uM after 72 hrs by MTT assay; assay type: cell-based; settings: read-out: Survival
# B16 [7] = experiment: Reduction of alpha-MSH-induced tyrosinase related protein 1 expression in mouse B16 cells after 2 days by Western blot analysis; assay type: functional, cell-based
# [8] = Cytotoxicity against mouse B16 cells at 20 uM after 72 hrs by MTT assay; assay type: cell-based; settings: read-out: Survival
# B16 [9] = experiment: Reduction of alpha-MSH-induced tyrosinase related protein 2 expression in mouse B16 cells after 2 days by Western blot analysis; assay type: functional, cell-based
# [10] = Cytotoxicity against mouse B16 cells at 30 uM after 72 hrs by MTT assay; assay type: cell-based; settings: read-out: Survival
# B16 [11] = experiment: Inhibition of melanin production in mouse B16 cells after 48 hrs; assay type: functional, cell-based
# Cavia porcellus [12] = experiment: Reduction of pigmentation in UV-induced hyperpigmentation brown guinea pig model at 0.3% applied topically bid for 4 weeks; assay type: functional, organism-based
# B16 [13] = experiment: Reduction of alpha-MSH-induced microphthalmia-associated transcription factor expression in mouse B16 cells after 2 days by Western blot analysis; assay type: functional, cell-based
# B16 [14] = experiment: Inhibition of alpha-MSH-induced melanin production in mouse B16 cells after 48 hrs
# B16 [15] = experiment: Cytotoxicity against mouse B16 cells up to 30 uM after 48 hrs by MTT assay; assay type: cell-based; settings: b16, 48 h
# Cavia porcellus [16] = experiment: Toxicity in UV-induced hyperpigmentation brown guinea pig model at 0.3% applied topically bid for 4 weeks; assay type: organism-based; settings: in vivo, topical_or_ocular, 672 h
# B16 [17] = experiment: Reduction of alpha-MSH-induced tyrosinase expression in mouse B16 cells after 2 days by Western blot analysis; assay type: functional, cell-based
Compound,Activity [1],IC50 (Tyrosinase [2]),Ki (Tyrosinase [3]),IC50 (B16 [4]),Activity (B16 [5]),other results
O=C(/C=C/c1ccc(O)cc1)c1ccc(NS(=O)(=O)c2ccc([N+](=O)[O-])cc2)cc1,Dose-dependent effect,15.2 µM,11.4 µM,,,
"O=C(/C=C/c1ccc(O)cc1)c1ccc(O)cc1 [4,4'-DIHYDROXYCHALCONE]",,4.8 µM,2.9 µM,48.7 µM,Active,
Nc1ccc(S(=O)(=O)Nc2ccc(C(=O)/C=C/c3ccc(O)cc3)cc2)cc1,Dose-dependent effect,30.7 µM,16.7 µM,21.2 µM,,
Nc1ccc(C(=O)/C=C/c2ccc(O)cc2)cc1,,8.3 µM,3.9 µM,28.1 µM,Active,
O=C(/C=C/c1ccc(O)cc1)c1ccc(NS(=O)(=O)c2ccc(O)cc2)cc1,Dose-dependent effect,58.8 µM,25.2 µM,32.1 µM,,
O=C(/C=C/c1ccc(O)cc1)c1ccc(NS(=O)(=O)c2ccccc2)cc1,Dose-dependent effect,22.5 µM,13.3 µM,24.2 µM,,
O=C(/C=C/c1ccc(O)cc1)c1ccc(NS(=O)(=O)c2ccc(F)cc2)cc1,Dose-dependent effect,29.1 µM,14.9 µM,19.8 µM,,
Cc1ccc(S(=O)(=O)Nc2ccc(C(=O)/C=C/c3ccc(O)cc3)cc2)cc1,Dose-dependent effect,23.3 µM,12.6 µM,10.4 µM,Active,"viability at 72 h, 10 µM [6]: 92%; Activity (B16 [7]): Active; viability at 72 h, 20 µM [8]: 84%; Activity (B16 [9]): Active; viability at 72 h, 30 µM [10]: 78%; Activity (B16 [11]): Active; Activity (Cavia porcellus [12]): Active; Activity (B16 [13]): Active; Activity (B16 [14]): Dose-dependent effect; Activity (B16 [15]): Non-toxic; Activity (Cavia porcellus [16]): Non-toxic; Activity (B16 [17]): Active"
